The SangsterLogP compilation

Assay: method code SF-AS, from DOI: 10.1016/s0006-291x(89)80063-4, PMID: 2916990
Settings: pH 7.5

SMILES | logD
O=c1ccn([C@H]2C=C[C@@H](CO)O2)c(=O)[nH]1 | -1.07
O=c1ccn([C@H]2C[C@H](O)[C@@H](CO)O2)c(=O)[nH]1 | -1.51
[N-]=[N+]=N[C@H]1C[C@H](n2ccc(N)nc2=O)O[C@@H]1CO | -0.64
[N-]=[N+]=N[C@@H]1[C@H](N=[N+]=[N-])[C@@H](CO)O[C@H]1n1cnc2c(N)ncnc21 | 0.8
O=c1[nH]c(=O)n([C@H]2C[C@H](F)[C@@H](CO)O2)cc1Cl | -0.17
Nc1nc2c(ncn2[C@H]2CC[C@@H](CO)O2)c(=O)[nH]1 | -1.01
O=c1[nH]c(=O)n([C@H]2CC[C@@H](CO)O2)cc1Cl | -1.11
O=c1[nH]c(=O)n([C@H]2CC[C@@H](CO)O2)cc1I | -0.61
Nc1nc2c(ncn2[C@H]2C=C[C@@H](CO)O2)c(=O)[nH]1 | -1.21
O=c1ccn(C2CCC(CO)O2)c(=O)[nH]1 (stereo unspecified) | -0.89
O=c1[nH]c(=O)n([C@H]2CC[C@@H](CO)O2)cc1Br | -0.99
O=c1[nH]c(=O)n([C@H]2C[C@H](F)[C@@H](CO)O2)cc1Br | -0.04
O=c1ccn([C@H]2C[C@H](F)[C@@H](CO)O2)c(=O)[nH]1 | -0.49

Second part, the molecule after the results:

logD | SMILES
0.35 | [N-]=[N+]=N[C@H]1C[C@H](n2cnc3c(N)ncnc32)O[C@@H]1CO
0.08 | Nc1ncnc2c1ncn2[C@H]1C[C@H](F)[C@@H](CO)O1
-0.36 | Nc1ncnc2c1ncn2[C@H]1C=C[C@@H](CO)O1
-0.52 | Nc1nc(N)c2ncn([C@H]3C[C@H](O)[C@@H](CO)O3)c2n1
-0.33 | [N-]=[N+]=N[C@H]1C[C@H](n2cnc3c(=O)[nH]c(N)nc32)O[C@@H]1CO
0.05 | Nc1nc(N)c2ncn([C@H]3CC(F)[C@@H](CO)O3)c2n1 (stereo partly specified)
0.24 | [N-]=[N+]=N[C@H]1C[C@H](n2cnc3c(N)nc(N)nc32)O[C@@H]1CO
-0.66 | Nc1nc2c(ncn2[C@H]2C[C@H](F)[C@@H](CO)O2)c(=O)[nH]1
